From patent US20080113956A1, “Substituted Porphyrins” (priority 1997, published 2008)
Where two headings read alike, the source gives them in different places.

Columns and labels:
DNA = assay: SOD activity in vitro in the presence of DNA (DNA interaction); format: biochemical
Description: The “ortho effect” also decreases the toxicity. It is well known that porphyrins, and particularly cationic porphyrins, interact with DNA and can act as DNA cleavers. This fact can be an issue in the use of metallo-porphyrins as anti-tumor drugs. The present mimetics avoid this interaction.
In order to maximize the decrease in toxicity due to interaction with DNA, two derivatives of the ortho compound have been prepared which carry four ethyl or four butyl groups (“4” and “5”, respectively).

lung injury = assay: Bronchopulmonary dysplasia model: premature neonatal baboon in 100% oxygen; format: in vivo
Description: Neonatal baboons were delivered prematurely by Caesarian section and then treated either with 100% oxygen or only sufficient PRN FIO2 to maintain adequate arterial oxygenation. To establish the model, thirteen 100% oxygen treated animals and twelve PRN control animals were studied. Treatment with 100% oxygen results in extensive lung injury manifested by days 9 or 10 of exposure and characterized by delayed alveolarization, lung parenchymal inflammation, and poor oxygenation. This is characteristic of the human disease, bronchopulmonary dysplasia and is thought to be mediated, at least in part, by oxidative stress on the developing neonatal lung. In a first trial of Mn TE-2-PyP, a neonatal baboon was delivered at 140 days gestation and placed in 100% oxygen. The animal received 0.5 mg/kg/24 hr Mn TE-2-PyP qd given i.v. in a continuous infusion over the entire 10 day study period.

[1] = vs NHE, literature comparators, cited from earlier work
[2] = literature comparators, cited from earlier work
rat brain homogenates = assay: Iron/ascorbate mediated lipid peroxidation of rat brain homogenates (TBARS); format: biochemical; conditions: for IC50: rat brain homogenate, 30 minutes incubation with iron and ascorbate, TBARS
Procedure: Frozen adult Sprague-Dawley rat brains (Pel-Freez, Rogers, Ark.) were homogenized with a polytron (Turrax T25, Germany) in 5 volumes of ice cold 50 mM potassium phosphate at pH 7.4. Homogenate protein concentration was determined with the Coomassie Plus protein assay (Pierce, Rockford, Ill.) using bovine serum albumin as a standard. The homogenate volume was adjusted with buffer to give a final protein concentration of 10 mg/ml and frozen as aliquots at […].
Rat brain homogenates (2 mg protein) were incubated with varying concentrations of antioxidant at 37° C. for 15 minutes. Oxidation of the rat brain homogenate was initiated by the addition of 0.1 ml of a freshly prepared anaerobic stock solution containing iron(II) chloride (0.25 mM) and ascorbate (1 mM) as previously reported (Braughler et al, J. Biol. Chem. 262:10438 (1987)). Samples (final volume 1 ml) were placed in a shaking water bath at 37° C. for 30 minutes. The reactions were stopped by the addition of 0.1 ml of a stock butylated hydroxytoluene (60 mM) solution in ethanol.
The concentration of thiobarbituric acid reactive species (TBARS) in rat brain homogenates was used as a index of lipid peroxidation (Bernhem et al, J. Biol. Chem. 174:257 (1948); Witz et al, J. Free Rad. Biol. Med. 2:33 (1986); Kikugawa et al, Anal. Biochem. 202:249 (1992); Jentzsch et al, Free Rad. Biol. Med. 20P251 (1996)). Malondialdehyde standards were obtained by adding 8.2 μl of 1,1,3,3-tetramethoxypropane in 10 ml of 0.01 M HCl and mixing for 10 minutes at room temperature. This stock was further diluted in water to give standards that ranged from 0.25 to 25 μM. Samples or standards (200 μl) were acidified with 200 μl of 0.2 M phosphoric acid in 1.5 ml locking microfuge tubes. The color reaction was initiated by the addition of 25 μl of a 0.11M thiobarbituric acid solution and samples were placed in a 90° C. heating block for 45 minutes. TBARS were extracted with 0.5 ml of n-butanol by vortexing samples for 3 minute and chilling on ice for 1 minute. The samples were then centrifuged at 12,000×g for 3 minutes, 150 μl aliquots of the n-butanol phase were placed in each well of a 96-well plate and read at 535 nm in a Thermomax platereader (Molecular Devices, Sunnyvale, Calif.) at 25° C. Sample absorbencies were converted to MDA equivalencies (μM) by extrapolation from the MDA standard curve. None of the antioxidants at concentrations employed in these studies affected the reaction of MDA standards with thiobarbituric acid and reactions without TBA were used as subtraction blanks.
Data were presented as their means ±SE. The inhibitory concentration of antioxidants that decreased the degree of lipid peroxidation by 50% (IC50) and respective 95% confidence intervals (CI) were determined by fitting a sigmoidal curve with variable slope to the data (GraphPad Prizm, San Diego, Calif.).

airway hyperreactivity = assay: Airway hyperreactivity to methacholine in ovalbumin sensitized mice; format: in vivo, mouse; conditions: intratracheal 2 μg daily for 4 days, methacholine 20, 30 and 40 mg/ml
Procedure: Mice were sensitized by intraperitoneal injection of ovalbumin twice, 14 days apart. Fourteen days after the second i.p. injection they were challenged with aerosolized ovalbumin daily for three days. Forty-eight hours after the third inhalation of ovalbumin they were given a 1 minute methacholine challenge and airway hyperreactivity followed using a Buxco body plethysmograph. Significant increases in airway resistance as measured by the PENH index occurred at doses of 20, 30 and 40 mg/ml of methacholine. […] This dose of in TM-2-PyP is equivalent to 0.8 mg/kg whole body dose.

mean arterial pressure = assay: Effect on vascular tone: blood pressure in anesthetized rats; format: in vivo; conditions: rat; for duration of the hypotensive effect: i.v.
Procedure: Rats were anesthetized and a femoral vein and carotid artery were cannulated. While blood pressure was monitored by the carotid artery, Mn TM-2-PyP was injected i.v. at doses ranging from 0.1 to 3.0 mg/kg. Mean arterial pressure fell from 100-125 mmHg to 50-60 mmHg within five to ten minutes. The effect was transient, lasting up to 30 minutes at doses of 0.1 to 0.25 mg/kg. […] Scavenging of superoxide in vascular walls would potentiate the effects of nitric oxide producing hypotension.

| Compound | toxicity due to interaction with DNA, comparison between ortho derivatives (DNA; Table 2 and FIG. 3) | lung pathology: inflammation (lung injury; 0.5 mg/kg/24 hr i.v., 10 days) | clinical decompensation of the lungs (lung injury; days 9 and 10, 0.5 mg/kg/24 hr i.v.) | oxygenation index (lung injury; neonatal baboon, 100% oxygen, 0.5 mg/kg/24 hr i.v. continuous infusion, 10 days) | lung pathology: lung injury (lung injury; vs prior animals treated with 100% oxygen) | E°1/2 half-wave potential of comparison compounds ([1]; listed as MnTM-2-PyP^3−) | kcat of comparison compounds ([2]; listed as MnTM-2-PyP^3−) | interaction with DNA (DNA; SOD activity in vitro in the presence of DNA) | increase in potency as lipid peroxidation inhibitor, ortho vs para (rat brain homogenates; MnTM-2-PyP vs MnTM-4-PyP) [fold] | IC50 (rat brain homogenates) [µM] | airway hyperreactivity (PENH index) (airway hyperreactivity) | mean arterial pressure after injection (mean arterial pressure; i.v. 0.1 to 3.0 mg/kg, fell from 100-125 mmHg within five to ten minutes) | duration of the hypotensive effect (mean arterial pressure; doses of 0.1 to 0.25 mg/kg) | duration of the hypotensive effect (mean arterial pressure; doses of 1-3 mg/kg) | E°1/2 half-wave potential of comparison compounds [1] | E°1/2 half-wave potential of comparison compounds ([1]; listed as MnTM-4-PyP^5−) | kcat of comparison compounds [2] |
| --- | --- | --- | --- | --- | --- | --- | --- | --- | --- | --- | --- | --- | --- | --- | --- | --- | --- |
| CC[n+]1ccccc1-c1c2nc(c(-c3cccc[n+]3CC)c3ccc([n-]3)c(-c3cccc[n+]3CC)c3nc(c(-c4cccc[n+]4CC)c4ccc1[n-]4)C=C3)C=C2.[Mn+3] [MnTE-2-PyP^5+, manganic meso-tetrakis-(N-ethylpyridinium-2-yl)porphyrin] | significantly less toxic than the methyl derivative | absence of inflammation | no evidence of clinical decompensation | marked improvement | marked decrease | – | – | – | – | – | – | – | – | – | – | – | – |
| manganese(III) 5,10,15,20-tetrakis(N-methylpyridyl)porphyrin [MnTM-2-PyP^5+] | – | – | – | – | – | +220 mV | 6.0 10^7 M^−1 s^−1 | greatly decreased | 15 | 1 | statistically significant reduction | 50-60 mmHg | up to 30 minutes | up to two hours | – | – | – |
| manganese(III) 5,10,15,20-tetrakis(N-methylpyridyl)porphyrin [MnTM-4-PyP^5+, reference compound] | – | – | – | – | – | – | – | – | – | 16 | – | – | – | – | +60 mV | +060 mV | 0.4 10^7 M^−1 s^−1 |
